According to patent US20090062899A1, “COMPOSITE STENT WITH POLYMERIC COVERING AND BIOACTIVE COATING” (NFOCUS NEUROMEDICAL, INC., priority 2001, published 2009):

Test system: endothelial cells
Experiment: cell growth on surfaces carrying the bioactive (P15) coating
Assay type: cell-based
Conditions: polymer sleeve covered with the peptide
Source text: Chemical/biological testing such as MA (amino acid analysis), in vitro cell cultures followed by SEM (scanning electron microscopy), and in vivo testing can be used for evaluating the coatings of the present invention.

Substance: H-Gly-Thr-Pro-Gly-Pro-Gln-Gly-Ile-Ala-Gly-Gln-Arg-Gly-Val-Val-OH (H-GTPGPQGIAGQRGVV-OH; also: covalently bound coating on PTFE) [P15]
- endothelial cell growth: stimulated
